Assay results published in patent US10829520B2, “Beta-hairpin peptidomimetics” (POLYPHOR AG, priority 2015, dated 2020).
Where a SMILES comes first, the peptide text is derived from it. Bridges are numbered along the chain shown (N, C = ends). Roman numbers before positions name the chains, in order. [ ]: non-standard residue; d: D form. Pro(trans-4-F) = O=C(O)[C@@H]1C[C@@H](F)CN1; Hyp = O=C(O)[C@@H]1C[C@@H](O)CN1; Tle = CC(C)(C)[C@H](N)C(=O)O; NMeC = CN[C@@H](CS)C(=O)O; dDab = NCC[C@@H](N)C(=O)O; Nle = CCCC[C@H](N)C(=O)O; Orn = NCCC[C@H](N)C(=O)O; Dab = NCC[C@H](N)C(=O)O; Dap = NC[C@H](N)C(=O)O; Sar = CNCC(=O)O

Columns and labels:
Type in all cases: cell-based
[1] = system: Klebsiella pneumoniae SSI #3010; details: SSI #3010
Method in brief: (§1)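 Inocula standardised to a 0.5 McFarland reference and diluted to about 10^6 CFU/mL in MH-II broth are incubated with two-fold peptide series containing 0.002% polysorbate 80. No visible growth after 18-20 hours at 35° C defines the MIC, in μg/mL.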

[2] = system: Klebsiella pneumoniae 968733; details: 968733
Escherichia coli 926415 = details: 926415
[3] = system: Acinetobacter baumannii 872842; details: 872842
[4] = system: Escherichia coli ATCC 25922; details: ATCC 25922
Method in brief: as §1

[5] = system: Pseudomonas aeruginosa ATCC 27853; details: ATCC 27853
Method in brief: as §1

[6] = system: Acinetobacter baumannii DSM 30008; details: DSM 30008
Method in brief: as §1

[7] = system: human red blood cells (hRBC); assay: Hemolysis of human red blood cells; details: red cells of human, 1 h
Method in brief: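 Peptides at 100 μg/mL were incubated with PBS-washed fresh human erythrocytes (20% v/v, ~0.9×10^9 cells/mL final) for 1 h at 37° C. with shaking. Supernatant OD540 was read after 8-fold dilution; percent hemolysis was expressed relative to the 2.5% Triton X-100 full-lysis control, with PBS/0.001% acetic acid as 0%.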

Row | Structure (SMILES) | Klebsiella pneumoniae SSI #3010 MIC [1] [µg/mL] | Klebsiella pneumoniae 968733 MIC [2] [µg/mL] | Escherichia coli 926415 MIC (Escherichia coli 926415) [µg/mL] | Acinetobacter baumannii 872842 MIC [3] [µg/mL] | Escherichia coli ATCC 25922 MIC [4] [µg/mL] | Pseudomonas aeruginosa ATCC 27853 MIC [5] [µg/mL] | Acinetobacter baumannii DSM 30008 MIC [6] [µg/mL] | Hemolysis at 100 μg/mL [7]; 100 [%] | Hemolysis at 100 μg/mL ([7]; 100 μg/mL) [%]
1 | CC(C)C[C@@H]1NC(=O)[C@@H](CC(C)C)NC(=O)[C@H](CCN)NC(=O)[C@@H](NC(=O)[C@H](CCN)NC(=O)[C@@H](NC(=O)[C@H](CCN)NC(=O)CC[C@@H]2NC(=O)[C@H](CCN)NC(=O)[C@H](Cc3ccc(O)cc3)NC(=O)[C@H]([C@@H](C)O)NC(=O)[C@H](CC(C)C)NC(=O)[C@@H]3CCCN3C(=O)[C@H]3CCCN3C(=O)[C@H](CO)NC(=O)[C@H]([C@@H](C)O)NC(=O)[C@H](C(C)C)NC(=O)[C@H](CCN)NC(=O)[C@H](Cc3c[nH]c4ccccc34)NC(=O)[C@H](CCN)NC(=O)[C@@H](CCN)NC2=O)[C@@H](C)O)CCNC(=O)[C@H]([C@@H](C)O)NC(=O)[C@H](CCN)NC(=O)[C@H](CCN)NC1=O [Ex. 91] (I: cyclo(LTY[Dab]E[dDab][Dab]W[Dab]VTS[dP]P) / II: [Dab]T[Dab][Dab][Dab][dL]L[Dab][Dab]T; amide I:5-II:N; lactam II:4-II:C) | 0.125 | 1 | 0.5 | 0.5 | 0.125 | 0.5 | 0.25 | 1 | –
2 | CC(C)C[C@@H]1NC(=O)[C@@H](CC(C)C)NC(=O)[C@H](CCN)NC(=O)[C@@H](NC(=O)[C@H](CCN)NC(=O)[C@@H](NC(=O)[C@H](CCN)NC(=O)CC[C@@H]2NC(=O)[C@H](CCN)NC(=O)[C@H](Cc3ccc(O)cc3)NC(=O)[C@H](CO)NC(=O)[C@H](CC(C)C)NC(=O)[C@@H]3C[C@@H](O)CN3C(=O)[C@@H](C)NC(=O)[C@H](CO)NC(=O)[C@H]([C@@H](C)O)NC(=O)[C@H](C(C)C)NC(=O)[C@H](CCN)NC(=O)[C@H](Cc3c[nH]c4ccccc34)NC(=O)[C@H](CCN)NC(=O)[C@@H](CCN)NC2=O)[C@@H](C)O)CCNC(=O)[C@H]([C@@H](C)O)NC(=O)[C@H](CCN)NC(=O)[C@H](CCN)NC1=O [Ex. 88] (I: cyclo([Dab]E[dDab][Dab]W[Dab]VTS[dA][Hyp]LSY) / II: [Dab]T[Dab][Dab][Dab][dL]L[Dab][Dab]T; amide I:2-II:N; lactam II:4-II:C) | 0.25 | 2 | 1 | 1 | 0.125 | 0.5 | 0.5 | 1 | –
3 | CCCC[C@@H]1NC(=O)[C@@H]2CCCN2C(=O)[C@H]2CCCN2C(=O)[C@H](CO)NC(=O)[C@H](CC(N)=O)NC(=O)[C@H](C(C)(C)C)NC(=O)[C@H](CCN)NC(=O)[C@H](Cc2c[nH]c3ccccc23)NC(=O)[C@@H](NC)CSSC[C@@H](C(=O)N(C)CC(=O)N[C@H](CCN)C(=O)N[C@@H](CCN)C(=O)N[C@H]2CCNC(=O)[C@H]([C@@H](C)O)NC(=O)[C@H](CCN)NC(=O)[C@H](CCN)NC(=O)[C@H](CC(C)C)NC(=O)[C@@H](CC(C)C)NC(=O)[C@H](CCN)NC2=O)NC(=O)[C@H](CCCN)NC(=O)[C@H](CCN)NC(=O)[C@H](Cc2ccc(O)cc2)NC(=O)[C@H](CN)NC1=O [Ex. 214] (H-[NMeC]W[Dab][Tle]NS[dP]P[Nle][Dap]Y[Dab][Orn]C[Sar][dDab][Dab][Dab][Dab][dL]L[Dab][Dab]T; disulfide 1-14; lactam 18-C) | 1 | 8 | 2 | 0.5 | 0.5 | 0.5 | 2 | – | 1
4 | CCCC[C@@H]1NC(=O)[C@@H]2CCCN2C(=O)[C@H]2CCCN2C(=O)[C@H](CO)NC(=O)[C@H](C)NC(=O)[C@H](C(C)(C)C)NC(=O)[C@H](CCN)NC(=O)[C@H](Cc2c[nH]c3ccccc23)NC(=O)[C@@H](N)CSSC[C@@H](C(=O)N[C@H](CCN)C(=O)N[C@H]2CCN(C)C(=O)[C@H]([C@@H](C)O)NC(=O)[C@H](CCN)NC(=O)[C@H](CCN)NC(=O)[C@H](CC(C)C)NC(=O)[C@@H](Cc3ccccc3)NC(=O)[C@H](CCN)NC2=O)NC(=O)[C@H](CCCN)NC(=O)[C@H](CCN)NC(=O)[C@H](Cc2ccc(O)cc2)NC(=O)[C@H](CO)NC1=O [Ex. 215] | 0.25 | 0.5 | 0.25 | 1 | 0.25 | 1 | 0.25 | – | <1
5 | CC(C)C[C@@H]1NC(=O)[C@@H](CC(C)C)NC(=O)[C@H](CCN)NC(=O)[C@@H](NC(=O)[C@H](CCN)NC(=O)[C@H](CCN)NC(=O)[C@@H](CCN)NC(=O)[C@H](CCCN)NC(=O)[C@@H]2CSSC[C@H](NC(=O)[C@@H](N)Cc3c[nH]c4ccccc34)C(=O)N[C@@H](C(C)C)C(=O)N[C@@H](CO)C(=O)N[C@@H](CO)C(=O)N3CCC[C@@H]3C(=O)N3CCC[C@H]3C(=O)N[C@@H](C(C)C)C(=O)N[C@@H](CN)C(=O)N[C@@H](Cc3ccc(O)cc3)C(=O)N2)CCNC(=O)[C@H]([C@@H](C)O)NC(=O)[C@H](CCN)NC(=O)[C@H](CCN)NC1=O [Ex. 148] (H-WCVSS[dP]PV[Dap]YC[Orn][dDab][Dab][Dab][Dab][Dab][dL]L[Dab][Dab]T; disulfide 2-11; lactam 16-C) | 1 | 4 | 0.5 | 0.25 | 0.25 | 0.125 | 0.5 | – | <1
6 | CC(C)C[C@@H]1NC(=O)[C@@H](CC(C)C)NC(=O)[C@H](CCN)NC(=O)[C@@H](NC(=O)[C@H](CCN)NC(=O)[C@@H](NC(=O)[C@H](CCN)NC(=O)[C@H](CCN)NC(=O)[C@@H]2CSSC[C@H](NC(=O)[C@@H](N)Cc3c[nH]c4ccccc34)C(=O)N[C@@H](C(C)C)C(=O)N[C@@H](C)C(=O)N[C@@H](CO)C(=O)N3CCC[C@@H]3C(=O)N3C[C@H](F)C[C@H]3C(=O)N[C@@H](CC(C)C)C(=O)N[C@@H](CO)C(=O)N[C@@H](Cc3ccc(O)cc3)C(=O)N2)[C@@H](C)O)CCNC(=O)[C@H]([C@@H](C)O)NC(=O)[C@H](CCN)NC(=O)[C@H](CCN)NC1=O [Ex. 124] (H-WCVAS[dP][Pro(trans-4-F)]LSYC[Dab][Dab]T[Dab][Dab][Dab][dL]L[Dab][Dab]T; disulfide 2-11; lactam 16-C) | 0.125 | 0.5 | 0.125 | 0.25 | 0.0625 | 0.5 | 0.125 | – | 1
7 | CC(C)C[C@@H]1NC(=O)[C@@H](CC(C)C)NC(=O)[C@H](CCN)NC(=O)[C@@H](NC(=O)[C@H](CCN)NC(=O)[C@@H](NC(=O)[C@H](CCN)NC(=O)CNC(=O)[C@@H]2CSSC[C@H](NC(=O)[C@@H](N)CC(C)C)C(=O)N[C@@H](C(C)C)C(=O)N[C@@H](C)C(=O)N[C@@H](Cc3ccc(O)cc3)C(=O)N[C@H](CCN)C(=O)N3CCC[C@H]3C(=O)N[C@@H](CC(C)C)C(=O)N[C@@H](CO)C(=O)N[C@@H](Cc3ccc(O)cc3)C(=O)N2)[C@@H](C)O)CCNC(=O)[C@H]([C@@H](C)O)NC(=O)[C@H](CCN)NC(=O)[C@H](CCN)NC1=O [Ex. 157] (H-LCVAY[dDab]PLSYCG[Dab]T[Dab][Dab][Dab][dL]L[Dab][Dab]T; disulfide 2-11; lactam 16-C) | 0.125 | 1 | 0.125 | 0.03125 | 0.0625 | 0.5 | 0.0625 | – | <1
8 | CCCC[C@@H]1NC(=O)[C@@H]2CCCN2C(=O)[C@H]2CCCN2C(=O)[C@H](CO)NC(=O)[C@H](C)NC(=O)[C@H](C(C)(C)C)NC(=O)[C@@H](NC(=O)[C@H](Cc2c[nH]c3ccccc23)NC(=O)[C@@H](N)CCCNC(=N)N)CSSC[C@@H](C(=O)N[C@@H](CCN)C(=O)N[C@H](C(=O)N[C@@H](CCN)C(=O)N[C@H]2CCNC(=O)[C@H]([C@@H](C)O)NC(=O)[C@H](CCN)NC(=O)[C@H](CCN)NC(=O)[C@H](CC(C)C)NC(=O)[C@@H](Cc3ccccc3)NC(=O)[C@H](CCN)NC2=O)[C@@H](C)O)NC(=O)[C@H](Cc2ccc(O)cc2)NC(=O)[C@H](CO)NC1=O [Ex. 39] (H-RWC[Tle]AS[dP]P[Nle]SYC[Dab]T[Dab][Dab][Dab][dF]L[Dab][Dab]T; disulfide 3-12; lactam 16-C) | 0.125 | 2 | 0.25 | 0.5 | 0.25 | 0.25 | 0.25 | – | 4
